Assay results: article PMC12443583 (Nature Medicine, 2025)

Tests used:
[1] = system: p-ERK (Thr185–Try187); assay: p-ERK in tumor biopsies, antibody bead-based Luminex; assay type: in vivo, human; settings: post-treatment versus pretreatment biopsy
[2] = system: p-MEK (Ser222); assay: p-MEK in tumor biopsies, antibody bead-based Luminex; assay type: in vivo, human; settings: post-treatment versus pretreatment biopsy
[3] = system: LGSOC; settings: 23 (binimetinib), cited from earlier work; for progression-free interval / response rate: phase 2 and phase 3 trials, ref 24 (selumetinib), 25 (trametinib); for discontinuation rates because of AEs: ref 25 (trametinib)

SMILES | phosphorylation of p-ERK in tumor biopsies [1] | phosphorylation of p-MEK in tumor biopsies [2] | progression-free interval [3] [months] | response rate [3] [%] | discontinuation rates because of AEs [3] [%]
CNS(=O)(=O)Nc1nccc(Cc2c(C)c3ccc(Oc4ncccn4)cc3oc2=O)c1F [avutometinib] | reduction | reduction |  |  | 
Cn1cnc2c(F)c(Nc3ccc(Br)cc3F)c(C(=O)NOCCO)cc21 [binimetinib] |  |  | 9.1 | 16 | 31
Cn1cnc2c(F)c(Nc3ccc(Br)cc3Cl)c(C(=O)NOCCO)cc21 [selumetinib] |  |  | 11 | 15 | 
CC(=O)Nc1cccc(-n2c(=O)n(C3CC3)c(=O)c3c(Nc4ccc(I)cc4F)n(C)c(=O)c(C)c32)c1 [trametinib] |  |  | 13 | 26 | 36
